# From PubChem BioAssay (NCI)
#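 Step 1: Grow cells in 96-well plates. Step 2: Expose to compound for 48 hours at 5 concentrations. Step 3: Interpolate endpoints linearly; if unreached, use highest concentration. At the TGI there is no net growth.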
# Assays:
# Test in all cases: growth of human tumour cells (NCI), 48 h
# [1] = tested on: OVCAR-5 ovarian
# [2] = tested on: COLO 205 colon
# [3] = tested on: KM12 colon
# [4] = tested on: ACHN renal
# [5] = tested on: UO-31 renal
# [6] = tested on: PC-3 prostate
# [7] = tested on: SF-268 CNS
# [8] = tested on: OVCAR-4 ovarian
# [9] = tested on: SNB-75 CNS
# [10] = tested on: SNB-19 CNS
# [11] = tested on: OVCAR-3 ovarian
# [12] = tested on: MALME-3M melanoma
# [13] = tested on: DU-145 prostate
# [14] = tested on: SK-MEL-5 melanoma
# [15] = tested on: RXF 393 renal
Structure (SMILES),TGI [1] [µM],TGI [2] [µM],TGI [3] [µM],TGI [4] [µM],TGI [5] [µM],TGI [6] [µM],TGI [7] [µM],TGI [8] [µM],TGI [9] [µM],TGI [10] [µM],TGI [11] [µM],TGI [12] [µM],TGI [13] [µM],TGI [14] [µM],TGI [15] [µM]
O=C1/C(=C/c2ccccc2)NC(=S)N1CN1CCOCC1,> 100,> 100,> 100,> 100,> 100,> 100,> 100,> 100,> 100,> 100,> 100,> 100,> 100,> 100,
O=C(CCc1cc(O)cc(O)c1)NCCc1cc(O)cc(O)c1,> 100,> 100,> 100,> 100,> 100,> 100,> 100,,> 100,> 100,> 100,,> 100,> 100,> 100
CC(C)(C)[Si](C)(C)OC1/C(=C/C#N)C(n2ccc(=O)[nH]c2=O)OC1CO (stereo not drawn),> 100,> 100,> 100,> 100,> 100,> 100,> 100,> 100,,> 100,> 100,> 100,> 100,> 100,> 100
CSc1ncnc2c1cnn2CCCCO,> 100,> 100,> 100,> 100,> 100,> 100,> 100,> 100,,> 100,> 100,> 100,> 100,> 100,> 100
CC(C)=CCc1c(O)ccc2ccc(=O)oc12,> 31.6,> 100,> 100,,> 95.1,,> 100,> 100,> 100,> 100,> 100,> 100,,23.5,> 100
CC(C)(C)C(=O)OC(N)/C=C/c1ccccc1 (stereo not drawn),> 100,> 100,> 100,> 100,> 100,> 100,,> 100,> 100,,> 100,> 100,,> 100,> 100
C#CCN(CC#C)C(=O)C(=O)c1c[nH]c2ccc(OC)cc12,48,60,30.6,65.1,21.1,,> 100,,55.1,36.1,,32.7,> 100,31.1,29.8
N#C/C(N)=C(\C#N)NC=NCc1ccccc1,> 100,> 100,> 100,> 100,> 100,> 100,> 100,> 100,> 100,> 100,> 100,> 100,> 100,> 100,
CCOP(=O)(O)C(C)(C)NC,> 100,> 100,> 100,> 100,> 100,> 100,> 100,> 100,,> 100,> 100,> 100,> 100,> 100,> 100
CSc1nncc2[nH]c(C)nc12,> 100,> 100,> 100,> 100,> 100,> 100,,> 100,> 100,,> 100,> 100,,> 100,
COc1ccc(C(OC(C)=O)C2C(=C(C#N)C#N)c3ccccc3C2=C(C#N)C#N)cc1 (stereo not drawn),38.3,,> 100,> 100,75.1,54.3,> 100,> 100,> 100,,50.6,,> 100,> 100,> 100
CN1C(=O)C(CC=O)(C(C)(C)C)c2ccccc21 (stereo not drawn),> 100,> 100,> 100,> 100,> 100,> 100,> 100,> 100,> 100,> 100,> 100,,> 100,> 100,> 100
CC#C[P+](c1ccccc1)(c1ccccc1)c1ccccc1,22,2.77,11.3,21.8,76.4,,8.44,20.1,12,15,14.3,22.4,,11.9,18.9
COc1ccc(CCN=C2OCc3ccccc32)cc1OC,,> 100,> 100,> 100,> 100,> 100,,> 100,> 100,> 100,,> 100,> 100,> 100,
CC(C)=C1C(=O)C[C@]2(C)C[C@H]3/C(=C(/C)CCC12)CC[C@@]3(C)O (stereo partly drawn),> 50,> 50,> 50,> 50,> 50,> 50,> 50,> 50,> 50,> 50,> 50,,> 50,> 50,> 50
COc1ccc(CN(Cc2ccc(OC)cc2)C(=O)CC2(O)C=CCC2)cc1 (stereo not drawn),> 100,> 100,> 100,> 100,> 100,> 100,,> 100,> 100,> 100,> 100,> 100,> 100,> 100,
O=C1NN=C2C=C(c3ccc(Cl)cc3)CC(c3cccc(Cl)c3)C12 (stereo not drawn),75.7,35.8,> 100,48.2,66.4,> 100,> 100,66.5,,36.1,> 100,> 100,> 100,39.9,38.5
O=C(/C=C/C=C/c1ccccc1)c1ccc2c(c1)CCCC2,> 100,> 100,> 100,> 100,> 100,> 100,42.6,> 100,,> 100,> 100,,92.3,> 100,
